One may read the IC50 as the concentration needed to halve the response being measured. For orientation: inhibition means the relative decrease from the control value, in per cent.

Values after ≈ are worked out from the molar mass of the structure shown. Like-named read-outs stand apart in the source and are kept apart here.

The values below come from patent US20170247409A1, “ABIETANE-TYPE DITERPENOIDS” (UNIVERSITY OF HELSINKI, priority 2014, published 2017).

One data set has as its system S. aureus biofilm. The settings on record: Fallarero et al, 2013; cited from earlier work.
The subject of another data set is S. aureus Newman. Briefly: Anti-biofilm potency against S. aureus Newman biofilms. It is filed as cell-based, Staphylococcus aureus. The following applies: S. aureus Newman. An excerpt: In fact, only 2-3 fold-higher concentrations of the compounds were needed to kill existing biofilms, in comparison to inhibiting bacterial colonization. […] Anti-biofilm potencies were all in the micromolar range and they were particularly significant for compound 22. […] The activity was also confirmed against S. aureus Newman strain. Potency values calculated for the S. aureus Newman (Table 3) were very similar to the values registered for S. aureus ATCC 25923.

The subject of data set [1] is S. aureus ATCC 25923 biofilms. Briefly: Anti-biofilm viability assay with redox dye, pre- and post-exposure, S. aureus ATCC 25923 biofilms. It is filed as cell-based, Staphylococcus aureus. The following applies: for inhibition at 400 µM: ATCC25923.
Data set [2] deals with S. epidermidis ATCC 12228. Briefly: Anti-biofilm activity against S. epidermidis ATCC 12228. In kind it is cell-based, Staphylococcus epidermidis. The settings on record: tested at IC50 conc. measured against S. aureus ATCC 25923. On the procedure: (§1) Four of the compounds were also tested against gram-negative E. coli biofilms as well as other Staphylococcal strains, at the corresponding IC50 values measured against S. aureus ATCC 25923 (Table 4). […] Nonetheless, all the compounds presented below were found active against S. epidermidis (ATCC 12228 and ATCC 35984) strains (Table 3).

Another data set deals with HL cells. Briefly: Tolerability of mammalian cells, resazurin viability assay. In kind it is cell-based, human. The following applies: 24 hours exposure; for cytotoxicity in HL cells: concentrations of up to 100 μM; for viable cells: HL cells. The method, then: Viability values were measured in acute conditions (24 hours exposure) using the resazurin assay as in Karlsson et al, 2012 (Eur J Pharm Sci. 2012 Aug 30;47(1):190-205). […] The least tolerated molecule was 25, as only 23% (±5.9) of cells remained viable upon exposure to 100 μM. However, concentrations up to 30 μM caused no cytotoxicity (90.2% of viable cells, ±0.5).

The subject of the next data set is single-cell bacteria. The data set is described as follows: Antibacterial activity (MIC) against single-cell (planktonic) bacteria. It is filed as cell-based. The following applies: Staphylococcus aureus, in the absence of biofilms, strain not stated. From the text: We selected six of the active compounds in the post-exposure assays namely, compounds 20, 21, 22, 25, 31 and 32 for the follow-up studies. […] In this mode of the assay, the interaction of the compounds occurs initially with single-cell bacteria (that is, a planktonic solution) before biofilms are formed. Therefore, we tested additionally if the compounds could exert antibacterial activity against single-cell bacteria, in the absence of biofilms. Based solely on conventional MIC and MBC values, antibacterial activities against single-cell bacteria were also high for the derivatives. […] The antibacterial activity order 22>21>25>31>20>32 correlated very well with the measured activity in preventing biofilm formation.

For the next data set, the system named is E. coli XL1 blue. The data set is described as follows: Anti-biofilm activity against E. coli XL1 blue biofilms. It is filed as cell-based, Escherichia coli. The settings on record: tested at IC50 conc. measured against S. aureus ATCC 25923. On the procedure: as §1
The subject of data set [3] is S. aureus ATCC 25923 biofilms. The data set is described as follows: Viable plate counts and Log Reduction of S. aureus ATCC 25923 biofilms. It is filed as cell-based, Staphylococcus aureus. The following applies: 400 μM, viable plate counts. On the procedure: The viability of S. aureus (ATCC 25923) biofilms left upon exposure to compounds 20, 21, 22 and 25 was determined using viable plate counts and calculating the Log Reduction (Log R) value. This procedure involves scrapping the biofilms off the substrate, disaggregating them by sonication and plating the resulting suspension in agar. The method is highly laborious but it is the gold standard for the quantification of anti-biofilm efficacy (Pitts et al. 2003). […] Of note, a log R value of 2 represents a reduction of 99% of the viable cells in the biofilms, and typically, a log R of 3 is considered a relevant indicator of the compound efficacy as an anti-biofilm agent.

Data set [4] concerns S. epidermidis ATCC 35984. Briefly: Anti-biofilm activity against S. epidermidis ATCC 35984. In kind it is cell-based, Staphylococcus epidermidis. The following applies: tested at IC50 conc. measured against S. aureus ATCC 25923. On the procedure:
as §1

Data set [5] concerns S. aureus ATCC 25923 biofilms. Briefly: Membrane depolarization in biofilms, DiBAC4(3) probe. It is filed as cell-based, Staphylococcus aureus. The settings on record: 1 h exposure to the biofilms (FIG. 2B). An excerpt:
(§2) A: quantification of ATP release from the S. aureus ATCC 25923 biofilms using the BacTiter-Glo bioluminescent assay. B: quantification of membrane depolarization in treated biofilms by the potential-sensitive DiABC(4)3 probe; this probe can only enter depolarized cells, where it experienced an enhanced fluorescence signal upon binding to intracellular proteins. For statistical comparisons between the treated and untreated samples, an unpaired t-test with Welch's correction was used, using GraphPad Prism (v 5.0 for Mac OS X).
(§3) ATP release from the biofilms after 1 h exposure to compounds 22 and 25 at 100 μM was quantified on the culture media, using the BacTiter-Glo bioluminescent assay. […] ATP release can be often associated to membrane depolarization events. Here, such events were followed by the increase in fluorescence emission of the DiBAC4(3) probe, as in Okuda et al. (2013).

Data set [6] relates to S. aureus ATCC 25923 biofilms. The data set is described as follows: ATP release from biofilms, BacTiter-Glo bioluminescent assay. It is filed as cell-based, Staphylococcus aureus. The settings on record: 100 μM; 1 h exposure (FIG. 2A).
Text: as §2, §3

Where [7] appears, read: Staphylococcus aureus, read-out: Potency, IC50 Post-biofilm formation.
The mark [8] stands for this setting: Staphylococcus aureus, read-out: Potency, IC50 Prior-to-biofilm formation.
The mark [9] stands for this setting: Staphylococcus aureus, value in parentheses, read-out: Potency, IC50 Post-biofilm formation.
Setting [10] is: Staphylococcus aureus, value in parentheses, read-out: Potency, IC50 Prior-to-biofilm formation.
Where [11] appears, read: Staphylococcus aureus, ATCC25923, 50% inhibition of biofilm viability, S. aureus ATCC 25923, read-out: Potency, IC50 Prior-to-biofilm formation.
Setting [12] is: Staphylococcus aureus, ATCC25923, 50% inhibition of biofilm viability, S. aureus ATCC 25923, value in parentheses, read-out: Potency, IC50 Prior-to-biofilm formation.
Where [13] appears, read: Staphylococcus aureus, ATCC25923, 24 h, measured 24 hours after adding to existing biofilms, S. aureus ATCC 25923, read-out: Potency, IC50 Post-biofilm formation.
[14] abbreviates: Staphylococcus aureus, ATCC25923, 24 h, measured 24 hours after adding to existing biofilms, S. aureus ATCC 25923, value in parentheses, read-out: Potency, IC50 Post-biofilm formation.
The mark [15] stands for this setting: Staphylococcus aureus, post-exposure, S. aureus ATCC 25923, read-out: % Inhibition 400 μM POST.
The mark [16] stands for this setting: Staphylococcus aureus, pre-exposure, S. aureus ATCC 25923, read-out: % Inhibition 400 μM PRE.

Turning to nordehydroabietylamine, in the data set with S. aureus biofilm, the “prevention of S. aureus biofilm formation” value (“prevention” for short) is reported as “low micromolar range”.
For `CC(C)c1ccc2c(c1)CC[C@H]1[C@](C)(CN)CCC[C@]21C` [dehydroabietylamine], in the data set on S. aureus biofilm, the “prevention” value is listed as “low micromolar range”.
In the case of `CC(C)c1ccc2c(c1)CC[C@H]1[C@](C)(C(=O)N[C@@H](Cc3ccccc3)C(=O)O)CCC[C@]21C` [Compound 21, N-(Abiet-8,11,13-trien-18-oyl) L-phenylalanine], the IC50 was found to be 83.7 µM in the data set with S. aureus Newman (setting [7]); 35.9 µM in the data set on S. aureus Newman (setting [8]); 37.5 µg/mL in the data set on S. aureus Newman (setting [9]); 16.1 µg/mL with S. aureus Newman (setting [10]); 35.5 µM in [1] (setting [11]); 15.9 µg/mL in data set [1] (setting [12]). Moreover, the IC50 in [1] (setting [13]) was found to be 109 µM; in data set [1] (setting [14]), 48.7 µg/mL. Moreover, the inhibition at 400 µM in data set [1] (setting [15]) worked out at 99.6%; in data set [1] (setting [16]), 100%. Further, the results for the “Inhibition percentage (±SD) Post-biofilm formation” value (in data set [2]; with E. coli XL1 blue; in [4]) were 46.9 (±9.9) %, 30.4 (±6.1) % and 44.4 (±8.4) %, respectively. Further, the “Inhibition percentage (±SD) Prior-to-biofilm formation” value in [2] is on record as 57.3 (±4.6) %; with E. coli XL1 blue, 7.4 (±2.7) %; in [4] it was 58.1 (±4.1) %. Further, in the data set with HL cells, the “cytotoxicity in HL cells” value was “did not cause statistically significant cytotoxicity”. For the same compound, in the data set with single-cell bacteria, the MIC was determined as 22.4 µg/mL (≈ 50 µM). Moreover, the “Log Reduction (average ±SD)” value in [3] is recorded as 4.3 (±0.2).
Regarding `CC1(C)S[C@@H]2[C@H](NC(=O)Cc3ccccc3)C(=O)N2[C@H]1C(=O)O` [Penicillin G, reference compound], the IC50 in the data set on S. aureus Newman (read-out: Potency, IC50 Prior-to-biofilm formation) is 0.27 µM; in [1] (50% inhibition of biofilm viability, S. aureus ATCC 25923, read-out: Potency, IC50 Prior-to-biofilm formation), 0.13 µM. The “Potency, IC50 Prior-to-biofilm formation” value is 0.090 µg/mL (≈ 0.269 µM) with S. aureus Newman (value in parentheses) and 0.048 µg/mL (≈ 0.144 µM) in data set [1] (50% inhibition of biofilm viability, S. aureus ATCC 25923, value in parentheses). Also, the “% inhibition, Post-biofilm formation” value in the data set on S. aureus Newman (at 400 μM) is 73% inhibition at 400 μM; in data set [1] (at 400 μM, existing biofilms, S. aureus ATCC 25923), 57% inhibition at 400 μM. Besides, the “Log Reduction (average ±SD)” value in data set [3] is 1.0 (±0.1).
For `CC(C)c1ccc2c(c1)CC[C@H]1[C@](C)(C(=O)N[C@H](Cc3c[nH]c4ccccc34)C(=O)O)CCC[C@]21C` [Compound 25, N-(Abiet-8,11,13-trien-18-oyl) D-tryptophan], the IC50 with S. aureus Newman (setting [7]) was determined as 71.7 µM; in the data set with S. aureus Newman (setting [8]), 20.9 µM; in the data set on S. aureus Newman (setting [9]) it was 34.9 µg/mL; with S. aureus Newman (setting [10]) it was 10.2 µg/mL; in data set [1] (setting [11]) it was 33.2 µM; in data set [1] (setting [12]), 16.2 µg/mL. Also, the IC50 in [1] (setting [13]) was under 100 µM; in [1] (setting [14]), 41.9 µg/mL; in data set [1] (measured 24 hours after adding to existing biofilms, S. aureus ATCC 25923, read-out: Potency, IC50 Post-biofilm formation), 86.1 µM. Moreover, the inhibition at 400 µM in [1] (setting [15]) and in data set [1] (setting [16]) was 102% in each case. For the same compound, in [1] (time-course on existing biofilms, within the first hour (FIG. 1)), the “reduction of the viable biofilm cells” value is given as about 50%. The “Inhibition percentage (±SD) Post-biofilm formation” value is 48.8 (±10.3) % in [2], 6.7 (±7.2) % in the data set with E. coli XL1 blue and 38.0 (±9.3) % in [4]. In addition, the “Inhibition percentage (±SD) Prior-to-biofilm formation” value in [2] was 70.3 (±5.6) %; with E. coli XL1 blue, 8.7 (±5.6) %; in [4], 66.9 (±0.9) %. Further, in data set [5], the membrane depolarization entry is reported as “caused membrane depolarization”. The viable cells in the data set with HL cells (100 μM) worked out at 23%; with HL cells (concentrations up to 30 μM), 90.2%. In the data set with single-cell bacteria, this compound yielded an MIC of 29.3 µg/mL (≈ 60.2 µM). Besides, the “Log Reduction (average ±SD)” value in data set [3] is on record as 6.2 (±0.4). For the same compound, the “ATP release from the biofilms” value in data set [6] is recorded as “highly significant ATP leakage”.
Consider `CC(C)c1ccc2c(c1)CC[C@H]1[C@](C)(C(=O)O)CCC[C@]21C` [dehydroabietic acid], for which, in the data set on S. aureus biofilm, the “prevention” value was “low micromolar range”.
Turning to `CC(C)C[C@H](NC(=O)[C@]1(C)CCC[C@]2(C)c3ccc(C(C)C)cc3CC[C@@H]12)C(=O)O` [Compound 20, N-(Abiet-8,11,13-trien-18-oyl) L-leucine], the IC50 with S. aureus Newman (setting [7]) worked out at 134 µM; in the data set on S. aureus Newman (setting [8]), 51.8 µM; with S. aureus Newman (setting [9]) it was 55.6 µg/mL; in the data set on S. aureus Newman (setting [10]), 21.4 µg/mL; in data set [1] (setting [11]), 62.2 µM; in [1] (setting [12]), 25.7 µg/mL. Further, the IC50 in data set [1] (setting [13]) turned out to be 121 µM; in [1] (setting [14]), 50.2 µg/mL. For the same compound, the inhibition at 400 µM in data set [1] (setting [15]) came out at 99.8%; in data set [1] (setting [16]), 100%. Further, the “Inhibition percentage (±SD) Post-biofilm formation” value in [2] is 12.9 (±5.1) %; in the data set on E. coli XL1 blue, 39.9 (±4.6) %; in data set [4], −12 (±6.0) %. Besides, the results for the “Inhibition percentage (±SD) Prior-to-biofilm formation” value (in data set [2]; in the data set on E. coli XL1 blue; in data set [4]) were 62.4 (±2.2) %, 14.2 (±4.5) % and 53.4 (±4.9) %, respectively. Further, in the data set on HL cells, the “cytotoxicity in HL cells” value is listed as “did not cause statistically significant cytotoxicity”. In addition, the MIC against single-cell bacteria was 33.1 µg/mL (≈ 80 µM). Besides, the “Log Reduction (average ±SD)” value in [3] is reported as 3.9 (±0.4).
